# Data from PubChem BioAssay AID463203 (Broad Institute, 2010).
# Calls of active or inactive are those of the source.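 The calls were made as follows: active = more than half of replicate measurements showing over 20% loss of kinase signal relative to plate controls; inconclusive = some but at most half of replicates over 20% loss; inactive = no replicate over 20% signal loss.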
# Target: Glycogen synthase kinase-3 alpha (Homo sapiens) (UniProt P49840)
# Assay: concentration-response blocking of human GSK3A – biochemical, luminescence, cell-free homogeneous, retest, dose response (AID 463203)
# Details: GSK-3 alpha enzyme, ADP-Glo luminescence, 60 min
# Sequence of Glycogen synthase kinase-3 alpha (Homo sapiens) (P49840 whole entry, looked up): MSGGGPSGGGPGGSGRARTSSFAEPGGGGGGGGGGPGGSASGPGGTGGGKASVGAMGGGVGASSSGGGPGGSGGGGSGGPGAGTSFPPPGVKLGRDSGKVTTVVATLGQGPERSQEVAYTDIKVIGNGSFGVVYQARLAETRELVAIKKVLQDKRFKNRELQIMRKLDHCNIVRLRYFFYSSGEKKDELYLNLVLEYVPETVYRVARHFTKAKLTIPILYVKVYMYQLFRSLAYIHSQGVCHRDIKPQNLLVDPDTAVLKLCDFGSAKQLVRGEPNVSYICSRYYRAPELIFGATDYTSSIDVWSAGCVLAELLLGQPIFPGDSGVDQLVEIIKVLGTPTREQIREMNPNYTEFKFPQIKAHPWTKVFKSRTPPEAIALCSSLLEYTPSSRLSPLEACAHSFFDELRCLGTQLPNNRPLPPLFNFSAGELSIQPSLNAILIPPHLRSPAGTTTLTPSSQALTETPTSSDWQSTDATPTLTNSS
row,Structure (SMILES),AC50
1,Nc1ncnc2c1ncn2[C@@H]1O[C@H](COS(=O)(=O)O)[C@@H](O)[C@H]1O,> 30 µM (inactive)
2,Cc1ccc(C(=O)c2cnc3cc4c(cc3c2S(=O)(=O)c2ccccc2)OCCO4)cc1,> 30 µM (inactive)
3,CCC(=NCCCn1ccnc1)c1c(O)n(-c2ccccc2)c(=O)[nH]c1=O,27.8 µM
4,CCCc1c(C(=O)N/N=C/C(C)=C/c2ccco2)nnn1-c1nonc1N,> 30 µM (inactive)
5,Fc1ccc(-c2nc3n(n2)Cc2ccccc2-3)cc1,> 30 µM (inactive)
6,O=C(CCN1CCOCC1)Nc1cccc(Br)c1,> 30 µM (inactive)
7,NNC(=O)/C(=N/Nc1ccccc1)S(=O)(=O)c1ccc(Cl)cc1,> 30 µM (inactive)
8,COC(=O)c1c(NC(=O)CN2C(=O)NC3(CCc4ccccc4C3)C2=O)sc2c1CCCCC2 (centres undefined),> 30 µM (inactive)
9,O=C(O)c1cccc2c1C(=O)c1ccc(Cl)cc1S2(=O)=O,> 30 µM (inactive)
10,Cc1ccc(C2C3=C(CCCC3=O)Nc3[nH]c(=S)[nH]c(=O)c32)cc1 (centres undefined),> 30 µM (inactive)
11,CC(=O)Nc1ccccc1C,> 30 µM (inactive)
12,O=C(NC(=S)NCC1COc2ccccc2O1)c1ccccc1 (centres undefined),> 30 µM (inactive)
13,Cc1n[nH]c(=S)n1/N=C/c1ccc(-c2ccccc2[N+](=O)[O-])o1,24.9 µM
14,O=c1[nH]cccc1-c1nc2ccccc2[nH]1,4.92 µM
15,O=C(CSc1nnc(SCc2ccccc2)s1)N/N=C/c1ccc(C(=O)O)cc1,2.55 µM
16,C#CCOCCOCCOCCNc1nc(N2CCN(C(=O)CCCCCCCCCCNC(=O)[C@H](CCCCN)n3cc(C)nn3)CC2)nc(N2CCN(C(=O)CCCCCCCCCCNC(=O)[C@H](CCCN=C(N)N)n3cc(C[C@@H](C)CC)nn3)CC2)n1,> 30 µM (inactive)
17,CC1=C(C(=O)OCc2ccccc2)C(c2cccc(F)c2)NC(=O)N1 (centres undefined),> 30 µM (inactive)
18,CCS(=O)(=O)N1CCN(c2ccnc3cc(Cl)ccc23)CC1,> 30 µM (inactive)
19,COc1ccc(-c2noc(CSc3nc(N)c(-c4ccccc4)c(=O)[nH]3)n2)cc1,> 30 µM (inactive)
20,COc1ccccc1OC(C)C(=O)N1CCC(Cc2ccccc2)CC1 (centres undefined),> 30 µM (inactive)
21,CCOc1cccc(-c2c(C(=O)N/N=C/c3ccco3)nnn2-c2nonc2N)c1,10.5 µM
22,CCOCCCN(C(=O)c1snc(C(N)=O)c1N)C(C(=O)NC1CCCC1)c1ccc(O)cc1 (centres undefined),27 µM
23,COc1ccc(C(=O)Nc2nc(C)c(C)s2)cc1OC,> 30 µM (inactive)
24,Cc1nc(NC(=O)c2ccccc2)sc1Cc1ccc2c(c1)OCO2,> 30 µM (inactive)
25,COc1cccc(/C=N/n2nnnc2N)c1OCC#N,> 30 µM (inactive)
26,Clc1ccc(-c2noc(COc3ccccc3)n2)cc1,> 30 µM (inactive)

row,Structure (SMILES),AC50
1,CCC(Sc1ccc2nnc(-c3cccnc3)n2n1)C(=O)O (centres undefined),> 30 µM (inactive)
2,CCCCn1c(O)c(C=NCCCn2ccnc2)c(=O)[nH]c1=O,5.81 µM
3,CC1(C)Cc2cccc(C(=O)Nc3ccc(Cl)cc3)c2O1,> 30 µM (inactive)
4,CN1/C(=C\C=C2C(=O)NC(=O)NC2=O)C(C)(C)c2ccccc21,27.9 µM
5,N#Cc1c(N)n(CCNC(=O)c2cccs2)c2nc3ccccc3nc12,25.7 µM
6,Cc1c(C(=O)OCCOC(C)C)[nH]c2c1C(=O)CC(C)(C)C2,25.4 µM
7,c1cncc(-c2nc(NCC3COc4ccccc4O3)c3ccccc3n2)c1 (centres undefined),22.9 µM
8,COCCn1c(SCC(=O)Nc2cc(C)on2)nc2ccccc21,> 30 µM (inactive)
9,COc1ccc(C(=O)Nc2nncs2)cc1S(=O)(=O)N1CC(c2ccccc2)CC1=O (centres undefined),> 30 µM (inactive)
10,Fc1cccc(/C=N/Nc2ccc3ccccc3n2)c1,> 30 µM (inactive)
11,COc1ccccc1Nc1ccc(S(=O)(=O)N2CCCCC2)cc1[N+](=O)[O-],> 30 µM (inactive)
12,O=C(COC(=O)C1CCC1)c1c[nH]c2ccccc12,> 30 µM (inactive)
13,O=C1CCCC/C1=C\Nc1ccc(O)cc1,21.6 µM
14,Cc1cccc(Nc2nc(C)cc(C)n2)c1,> 30 µM (inactive)
15,S=C(NCc1ccc2c(c1)OCO2)NCc1ccc2c(c1)OCO2,25.5 µM
16,CCSc1nc2c(c(=O)[nH]1)C(c1ccc(C)cc1)C1=C(CCCC1=O)N2 (centres undefined),> 30 µM (inactive)
17,CCCCOC(=O)C1=C(C)Nc2ncnn2C1c1ccc(OC)c(OC)c1OC (centres undefined),12.4 µM
18,O/N=C1/CC/C(=N\O)c2nn(-c3ccccc3)nc21,25.3 µM
19,CCOC(=O)c1c(NC(=O)CN2C(=O)NC3(CCCCC3C)C2=O)sc(C)c1C (centres undefined),> 30 µM (inactive)
20,CCN1CCN(c2nc(N)c([N+](=O)[O-])c(Nc3ccc(C)c(C)c3)n2)CC1,> 30 µM (inactive)
21,Cc1cc2nc(-c3cccnc3SCC(=O)NC(C)C)[nH]c2cc1C,> 30 µM (inactive)
22,Cc1cccc2cc(C#N)c(NCCNC(=S)NCCCN3CCOCC3)nc12,> 30 µM (inactive)
23,COc1cc(OC)cc(C(=O)O/N=C(\N)c2ccccn2)c1,> 30 µM (inactive)
24,Cc1nc(SCC(=O)N(CC(C)C)C2CCS(=O)(=O)C2)c2ccccc2n1 (centres undefined),> 30 µM (inactive)
25,Nc1nnc(SCC(=O)Nc2sc3c(c2C(=O)c2ccccc2)CCCC3)s1,> 30 µM (inactive)
26,O=c1[nH]nc(SCc2ccccc2Cl)n1-c1ccc2c(c1)OCCO2,7.11 µM

row,Structure (SMILES),AC50
1,O=[N+]([O-])c1ccc(N/N=C/c2cn(Cc3ccc(F)cc3)c3ccccc23)nc1,> 30 µM (inactive)
2,O=C(NCCCN1CCOCC1)c1cc(Cl)ccc1[N+](=O)[O-],> 30 µM (inactive)
3,Cc1noc(C)c1COc1cccc(C(=O)OC(C)C(=O)Nc2c(C)n(C)n(-c3ccccc3)c2=O)c1 (centres undefined),> 30 µM (inactive)
4,CCOc1ccc(-c2nonc2NC(=O)c2ccco2)cc1,> 30 µM (inactive)
5,CCCc1cc(C(N)=O)c(NC(C)=O)s1,30.8 µM
6,Cc1cc(NS(=O)(=O)c2ccc(Nc3nc(-c4ccc(O)cc4)cs3)cc2)no1,15.3 µM
7,COc1cc(/C=N/NC(=O)c2nnn(-c3nonc3N)c2-c2cccs2)ccc1O,4.37 µM
8,CCC(Sc1ccc2nnc(-c3ccc(OC)c(OC)c3)n2n1)C(=O)O (centres undefined),29.2 µM
9,CC(C)(C)NC(=O)/C(=C\c1ccccc1F)NC(=O)c1ccc([N+](=O)[O-])cc1,> 30 µM (inactive)
10,CC(=O)Nc1cccc(-c2cnc(N)c(C(=O)c3cccnc3)n2)c1,0.105 µM
11,CCOC(=O)c1nnn(-c2nonc2N)c1COc1cc(C)c(Cl)c(C)c1,6.9 µM
12,CCOC(=O)CC(C#N)c1c[nH]c2ccccc12 (centres undefined),> 30 µM (inactive)
13,CS(=O)(=O)Nc1ccc(-c2ccc(/C=C3\SC(N)=NC3=O)o2)cc1,1.02 µM
14,CCCCc1[nH]c(=O)c(C#N)c2c1CCCC2,> 30 µM (inactive)
15,COc1ccc(OC)c(N=c2oc3c(OC)cccc3cc2C(=O)NCc2ccco2)c1,> 30 µM (inactive)
16,CCOC(=O)c1ccc(N2C=C(C(=O)OC)C(c3ccc(OC)c(O)c3)C(C(=O)OC)=C2)cc1,> 30 µM (inactive)
17,CCOc1ccc(-n2c(O)c(C=NCCCn3ccnc3)c(=O)[nH]c2=O)cc1,22.4 µM
18,CN1C(=O)N(C)C2(c3ccccc3)Nn3c(s/c(=C/c4ccccc4)c3=O)=NC12c1ccccc1 (centres undefined),> 30 µM (inactive)
19,Cc1nn2cc(-c3ccccc3)nc2[nH]c1=O,> 30 µM (inactive)
20,COc1ccc(S(=O)(=O)NCc2ccc(C(=O)N3CCC4(CC3)OCCO4)cc2)cc1,> 30 µM (inactive)
21,COCCCNc1nc2ccccc2[nH]c1=O,> 30 µM (inactive)
22,Cc1ccc(CSc2nnc(-c3cccnc3)o2)cc1,> 30 µM (inactive)
23,Oc1ccc(/C=N/Nc2nccnc2Cl)cc1,24.8 µM
24,Cc1ccc(O)c(C(=O)c2coc(=N)c(C(=O)NC(C)C)c2)c1,22.1 µM
25,O=C(NCc1c(F)cccc1F)c1cc(COc2c(F)cccc2F)on1,> 30 µM (inactive)
26,O=c1cc[nH]c2ccc(OC(F)(F)F)cc12,> 30 µM (inactive)

row,Structure (SMILES),AC50
1,COc1cccc(OCc2cc(C(=O)NCc3ccc4c(c3)OCO4)no2)c1,> 30 µM (inactive)
2,Cc1cc(C(C#N)c2ccccc2F)n2ncnc2n1 (centres undefined),1.87 µM
3,C=CCOc1ccc(/C=N/n2cncn2)cc1OC,> 30 µM (inactive)
4,S=C(NCCC1=CCCCC1)Nc1ccccc1,> 30 µM (inactive)
5,CCCCSc1nc(N)c(C#N)c(-c2cccs2)c1C#N,> 30 µM (inactive)
6,N#Cc1c2ccc(O)cc2n2ccccc12,3.56 µM
7,O=c1c2ccccc2[nH]c2ccccc12,> 30 µM (inactive)
8,CN(C)S(=O)(=O)c1cccc(NC(=S)NN=C(Cc2ccccc2)Cc2ccccc2)c1,> 30 µM (inactive)
9,COc1ccccc1/C=N/NC(=O)c1ccccc1Cl,> 30 µM (inactive)
10,Cc1nc2ncnn2c(C)c1Cc1ccccc1Cl,> 30 µM (inactive)
11,C/C(=N\NC(=O)c1nnn(-c2nonc2N)c1-c1cccs1)c1cccnc1,1.33 µM
12,CC(C)c1ccc(/C=N/NC(=O)c2nnn(-c3nonc3N)c2CN(C)C2CCCCC2)cc1,> 30 µM (inactive)
13,CCOc1ccc2nc(NC(=O)CSc3ccccc3)sc2c1,> 30 µM (inactive)
14,COc1ccccc1NC(=O)CSc1nnc(-c2ccc(C)cc2)o1,> 30 µM (inactive)
15,CCC(=O)NC(=S)Nc1cccc(C(C)=O)c1,> 30 µM (inactive)
16,Cc1ccc(C(=O)N2NC(c3ccc(F)cc3)C3C(=O)N(c4ccc(C)c(C)c4)C(=O)C32)cc1 (centres undefined),> 30 µM (inactive)
17,CN(C)Cc1c(C(=O)N/N=C/c2ccc(-c3ccccc3)cc2)nnn1-c1nonc1N,> 30 µM (inactive)
18,Cc1nccnc1Sc1ccccc1,> 30 µM (inactive)
19,CCCCNc1nc(N)nc(-c2cc(Cl)ccc2O)n1,3.04 µM
20,O=c1[nH]nc(SCCS(=O)(=O)c2ccc(F)cc2)n1-c1ccccc1,22.9 µM
21,Cc1cc(NC(=O)CSc2nc3ccccc3c(=O)n2CCCC(=O)NCc2ccco2)n[nH]1,> 30 µM (inactive)
22,O=c1c2ccccc2oc2ccc(NCCCn3ccnc3)cc12,> 30 µM (inactive)
23,CCCCOC(=O)n1ccc(C(=O)Nc2ccccc2OC)n1,29.6 µM
24,CCOC(=O)c1nnn(-c2nonc2-n2cccc2)c1C,> 30 µM (inactive)
25,COc1ccc(C2c3sc(=O)[nH]c3SC3C4CCC(C4)C23)cc1OC (centres undefined),1.92 µM
26,CC1(C)CC(NC(=O)COc2ccccc2Cl)CC(C)(C)N1,> 30 µM (inactive)
